Assay results as given in paper PMC12033163, “Tumor-specific biochemical nanoconversion of self-assembled peptide-conjugated paclitaxel-docetaxel-based nanoparticles” (Nano Convergence, 2025).
Peptide text beside a SMILES is read from it.

What was measured:
[1] = Morphology / nanoparticle formation by TEM and SEM; assay type: physicochemical
[2] = tested on: Hep G2 cells; experiment: In vitro cytotoxicity assay (EZ-Cytox); assay type: cell-based; conditions: Hep G2, 48 h; for cell viability at 500 µM / cell viability at 500 µM in 3% DMSO solution: relative to untreated group; for cell viability at 500 µM: n = 5-6, mean ± S.D.; for cell viability at 500 µM in 3% DMSO solution: n = 6
Experimental: The cytotoxicity of (Ac)FRRF, de-Boc-DTX, (Ac)FRRF-DTX NPs, PTXm and PTX were evaluated using the EZ-Cytox assay on Hep G2 cell. Hep G2 was cultured in a 96-well plate at concentrations of 5.0 × 10^3 cells/well and 1.0 × 10^4 cells/well, respectively, under conditions of 37℃ and 5% CO2 for 1 h. Subsequently, cells were cultured for 48 h with concentrations ranging from 0.1 to 500 µM of each drug. Cell viability (n = 5 − 6) was measured at 450 and 600 nm absorbance using the EZ-Cytox cell viability assay kit (Daeil Lab Service, Republic of Korea) and a microplate reader (SPECTROstar Nano spectrophotometer, BMG Labtech, Germany). Cell viability was calculated by comparing the absorbance values of the measured samples with those of the control group. Additionally, to more accurately confirm the cytotoxicity of DTX and PTX with low solubility in aqueous media for Hep G2 cell, both of drug were dissolved in a 3% DMSO solution and cultured for 48 h at concentrations ranging from 0.1 to 500 µM. Cell viability was determined using the same method.

[3] = Solubility assessment; conditions: for appearance of solution in 3% DMSO: 0.3 mg/mL in water (DW) with 3% DMSO; for appearance of solution in 3% DMSO / appearance of solution in 10% DMSO: visual images; for appearance of solution in 10% DMSO: 0.3 mg/mL in water with 10% DMSO
Experimental: The images aimed to observe how well these compounds dissolved in the solution. Additionally, an experiment was carried out to precisely determine the aqueous solubility values of (Ac)FRRF-DTX nanoparticles. […] […] Moreover, complementary experiments were performed to obtain accurate quantitative solubility values for (Ac)FRRF-DTX NPs.

[4] = target: T1, Cathepsin B from bovine spleen (Bos taurus, UniProt P07688); experiment: Cathepsin B cleavage assay (RP-HPLC, LC-MS); assay type: in vitro ADME; conditions: 50 µM, 25 mM MES buffer, 37℃, RP-HPLC 245 nm
T1 construct: Cathepsin B from bovine spleen; purchased Sigma-Aldrich; host or cells: bovine spleen (tissue-derived enzyme)
Source text: Antibiotic antimycotic solution (100X), Bio TrackerTM 488 Green Microtubule Cytoskeleton Dye, Cathepsin B from bovine spleen, Dimethyl sulfoxide (DMSO), Dulbecco’s modified Eagle’s medium (DMEM), 1-ethyl-3-(3-dimethylaminopropyl) carbodiimide (EDCI), dichloromethane (DCM), ether, phosphate-buffered saline (PBS), rhodamine B isothiocyanate (RITC), 2-(4-amidi-nophenyl)-6-indolecarbamidine dihydrochloride (DAPI), Tetramethylsilane (TMS), Dimethyl sulfoxide-d6 (DMSO-d6) were purchased from Sigma-Aldrich (St. Louis, MO, USA). Paraformaldehyde solution 4% in PBS (PFA), PierceTM BCA Protein Assay Kit were obtained from Thermo Fisher Scientific (Waltham, MA, USA). EZ-Cytox kit was purchased from DoGenBio (Seoul, Republic of Korea). Fetal bovine serum (FBS), 0.5% Trypsin-EDTA (10X) were obtained from Gibico (Waltham, MA, USA). Neutral buffered formalin (10%) was purchased from HuBenTech (Damyang, Republic of Korea).
The cathepsin B-specific cleavage of (Ac)FRRF-DTX was analyzed using reverse-phase high-performance liquid chromatography (RP-HPLC), and the molecular weight of PTXm was determined by liquid chromatography-mass spectrometry (LC-MS). […] The cleavage profile of (Ac)FRRF-DTX NPs was analyzed at 245 nm using reversed-phase high-performance liquid chromatography (RP-HPLC) under solvent gradient conditions (from 90:10 H2O/acetonitrile to 10:90 H2O/acetonitrile over 40 min). […]

[5] = tested on: microtubules in Hep G2 cells; experiment: In vitro microtubule staining (BioTracker 488 Green Microtubule Cytoskeleton Dye); assay type: cell-based; conditions: Hep G2, 100 µM, 24 h, versus well-organized control
Experimental: To assess the cell death induced by PTX, PTXm, and (Ac)FRRF-DTX NPs in Hep G2 cells, an evaluation was conducted using the nucleic green reagent, and the results were visualized through imaging. Hep G2 cells cultured in high-glucose DMEM medium, maintain in a sample chamber with appropriate humidity, and kept at 37℃ with 5% CO2. The cells were cultured in 35 mm fluorescent cell culture dishes (SPL Life Science, Republic of Korea) at a concentration of 4 × 10^4 for 3 h. Subsequently, DTX, PTX, and (Ac)FRRF-DTX NPs were all treated at a concentration of 100 µM (in DMSO 2%) for 24 h. After sample treatment, cells were washed five times with DPBS solution, and in a light-protected environment, the medium was replaced with a mixture of microtubule reagent (Bio Tracker™ 488 Green Microtubule Cytoskeleton Dye, Sigma-Aldrich, MO, USA) in fresh medium at RT for 30 min. Following this, the medium was replaced with new DMEM containing 10% FBS, and images were captured using ECLIPSE Ti2 Series (Nikon, Japan) with a FITC filter and quantified using ImageJ (U.S. National Institutes of Health).

[6] = tested on: Hep G2 tumors; experiment: In vivo antitumor test (Hep G2 xenograft); parameters: species or system BALB/c nude mice; conditions: for average tumor weight after 17 days / tumor size after 17 days: i.v. at 3 day intervals, PTX, de-Boc-DTX 5 mg/kg, NPs 10 mg/kg; for average tumor weight after 17 days: control 595.28 ± 282.98; for tumor size after 17 days: control 2161.12 ± 946.71; for TUNEL staining fluorescence intensity of tumor tissue: tumors after 17 days, ImageJ, relative to control group, n = 3
Experimental: All animal experiments were conducted in accordance with the standard regulations of the Konkuk University Animal Experimentation Ethics Committee (Ref: no. KU220748-1). Hep G2 cells at a concentration of 1.0 × 10^7 cells/100 µL were subcutaneously inoculated into the dorsal region at 6-week-old male BALB/c nude mice (Orient Bio, Seongnam, Republic of Korea). After […], when the tumor volume reached approximately 50 − 100 mm^3 (calculated as the maximum diameter × minimum diameter^2 × 0.52), the mice were divided into four groups. Mice with tumors were intravenously administered saline, de-Boc-DTX (5 mg/kg), PTX (5 mg/kg), or (Ac)FRRF-DTX NPs (10 mg/kg; based on 5 mg/kg of de-Boc-DTX) at 3 days intervals for a total of 17 days. The body weight and tumor volume of the treated mice were measured every other day using a digital caliper (ASIMETO, Mooresville, NC, USA). After 17 days of treatment, tumors were fixed with diluted 10% neutral pH formalin (HuBen Tech, Republic of Korea). Tumor tissues were stained with TUNEL, Ki-67, and H&E. Sections of tumor tissues stained with Ki-67 and H&E were observed using the OS-33DPM multimedia video microscope (OSUN HITECH, Republic of Korea). Additionally, tumor tissues stained with TUNEL were sliced for histological observation using an ECLIPSE Ti2 inverted microscope (Nikon, Japan), and FITC fluorescence intensity was quantified using ImageJ (U.S. National Institutes of Health) (n = 3).

[7] = In vivo blood toxicity assessment (hematology); conditions: normal mice, i.v.; PTX 1.5 mg/kg, NPs 3 mg/kg; blood after 7 days, n = 5
Experimental: Hematological analysis of red blood cell (RBC) and white blood cell (WBC) parameters in mice treated with (Ac)FRRF-DTX was performed through clinical pathological examinations. Normal saline (control group), de-Boc-DTX (1.5 mg/kg), PTX (1.5 mg/kg), and (Ac)FRRF-DTX NPs (3 mg/kg) were dissolved in 200 µL of normal saline and administered daily via tail vein. After 7 days, blood was drawn from the mice’s heart and collected in tubes containing EDTA to prevent coagulation. Subsequently, whole blood samples were stored for analysis. Level of RBC-related parameters (RBC, HGB, HCT, MCV, MHC, MCHC) and WBC-related parameters (WBC, PLT, NEU, LYM, MONO, EOS) were measured using a hematology analyzer (Sysmex XN series, Sysmex, Japan) (n = 5).

[8] = mouse, in vivo

Row | Structure (SMILES) | morphology / nanoparticle formation [1] | cell viability at 500 µM ([2]; without DMSO) | appearance of solution in 3% DMSO [3] | appearance of solution in 10% DMSO [3] | cell viability at 500 µM in 3% DMSO solution [2] | appearance of microtubule structures [5] | average tumor weight after 17 days ([6]; n = 5-7) | tumor size after 17 days ([6]; n = 5-7) | TUNEL staining fluorescence intensity of tumor tissue [6] | histological toxicity in major organs (heart, liver, spleen, lungs, kidney) [8] | also measured
1 | CC(=O)N[C@@H](Cc1ccccc1)C(=O)N[C@@H](CCCNC(=N)N)C(=O)N[C@@H](CCCNC(=N)N)C(=O)N[C@@H](Cc1ccccc1)C(=O)O [(Ac)FRRF, acetylated Phe-Arg-Arg-Phe peptide] (Ac-FRRF-OH) | absence of nanoparticle formation | 84.1 ± 6.6% |  |  |  |  |  |  |  |  | 
2 | CC(=O)N[C@@H](Cc1ccccc1)C(=O)N[C@@H](CCCNC(=N)N)C(=O)N[C@@H](CCCNC(=N)N)C(=O)N[C@@H](Cc1ccccc1)C(=O)N[C@@H](c1ccccc1)[C@@H](O)C(=O)O[C@H]1C[C@@]2(O)[C@@H](OC(=O)c3ccccc3)[C@@H]3[C@]4(OC(C)=O)CO[C@@H]4C[C@H](O)[C@@]3(C)C(=O)[C@H](O)C(=C1C)C2(C)C [(Ac)FRRF-DTX, Acetylated Phenylalanine-Arginine-Arginine-Phenylalanine Docetaxel] |  |  |  |  |  |  |  |  |  |  | solubility in water ([3]; water without DMSO): 1.3 mg/20 µL; change of (Ac)FRRF-DTX in the absence of cathepsin B ([4]; 0-72 h, no cathepsin B): remained unchanged; nanoconversion of (Ac)FRRF-DTX to PTXm at 48 h ([4]; cathepsin B 50 µg/mL, 48 h): complete nanoconversion
3 | CC(=O)O[C@@]12CO[C@@H]1C[C@H](O)[C@@]1(C)C(=O)[C@H](O)C3=C(C)[C@@H](OC(=O)[C@H](O)[C@@H](NC(=O)OC(C)(C)C)c4ccccc4)C[C@@](O)([C@@H](OC(=O)c4ccccc4)[C@H]21)C3(C)C [DTX, Docetaxel] |  | 57.9 ± 8.9% | opaque or precipitated | clear | 24.9 ± 4.6% |  |  |  |  |  | 
4 | CC(=O)O[C@H]1C(=O)[C@@]2(C)[C@H]([C@H](OC(=O)c3ccccc3)[C@]3(O)C[C@H](OC(=O)[C@H](O)[C@@H](NC(=O)c4ccccc4)c4ccccc4)C(C)=C1C3(C)C)[C@]1(OC(C)=O)CO[C@@H]1C[C@@H]2O [PTX, paclitaxel] |  | 55.5 ± 4.9% | opaque or precipitated | clear | 27.4 ± 4.5% | indistinct | 293.97 ± 164.22 mg | 1029.79 ± 752.19 mm^3 | 183.71 ± 2.32% | no significant toxicity | body weight change ([6]; 17 days treatment, n = 5-7): no significant changes in body weight; white blood cell parameters (NEU, LYM, EOS concentrations) [7]: alterations in NEU, LYM and EOS concentrations
5 | CC(=O)O[C@@]12CO[C@@H]1C[C@H](O)[C@@]1(C)C(=O)[C@H](O)C3=C(C)[C@@H](OC(=O)[C@H](O)[C@@H](NC(=O)[C@@H](N)Cc4ccccc4)c4ccccc4)C[C@@](O)([C@@H](OC(=O)c4ccccc4)[C@H]21)C3(C)C [PTXm] |  | 40.9 ± 10.9% |  |  |  | indistinct |  |  |  |  | IC50 ([2]; tested 0.1-500 µM, without DMSO): 214 µM
6 | CC(=O)O[C@@]12CO[C@@H]1C[C@H](O)[C@@]1(C)C(=O)[C@H](O)C3=C(C)[C@@H](OC(=O)[C@H](O)[C@@H](N)c4ccccc4)C[C@@](O)([C@@H](OC(=O)c4ccccc4)[C@H]21)C3(C)C [de-Boc-DTX] | absence of nanoparticle formation | 75.3 ± 5.4% |  |  |  |  | 265.94 ± 298.69 mg | 1262.19 ± 1209.27 mm^3 | 196.50 ± 4.25% | no significant toxicity | 
